We go through six compounds from paper PMC12332266 (Frontiers in Pharmacology, 2025).

Data set [1] relates to hiPSC-CM (iCell Cardiomyocytes^2). The data set is described as follows: RTCA CardioECR assessment (impedance and electrophysiology parameters). Here is the method: (§1) Culture media change was performed every 2 days.
After seeding on fibronectin-coated xCELLigence ePlates (Agilent Technologies, Inc. Santa Clara, CA, USA), iCell^2 CM were monitored continuously through impedance electrodes. The following impedance parameters were measured: Cell Index (CI, measure of cell “health” and monolayer integrity), beating rate (BR) and amplitude (CI Amplitude, magnitude of contraction). Electrophysiology-like parameters (Field Potential Duration (FPD), considered as a surrogate for QT in in vivo studies, and Spike Amplitude (SA), depolarization induced by Na^+ channel opening) were measured starting from day 4–6, following the monolayer formation. […] All RTCA CardioECR data were double normalized (DMSO control and the baseline) with no further statistical group comparison for the normalized parameters. The variability of the data within the treatment groups was assessed by standard deviation.

Data set [2] shares this test system. The experiment in a line: Intracellular miRNA expression by RT-qPCR in hiPSC-CM pellets after 72-hour treatment. As to conditions: for fold induction at 0.1 µM / fold induction at 0.3 µM / fold induction at 1 µM / fold induction at 3 µM / fold induction at 0.01 µM / fold induction at 0.03 µM: Homo sapiens. On the procedure:
as §1
Total RNA was extracted from hiPSC-CM using the miRNeasy 96 Kit (Qiagen, Hilden, Germany) following the manufacturer’s recommendations. After the extraction, RNA purity was assessed by NanoDrop™ 8000 Spectrophotometer (Thermo Fisher Scientific Inc.). 5–10 ng/μL of RNA per sample were reverse transcribed and pre-amplified by using the TaqMan™ Advanced miRNA cDNA Synthesis Kit (Thermo Fisher Scientific Inc.). The synthesized cDNA was used for RT-qPCR with selected TaqMan™ assays (Thermo Fischer Scientific Inc.). RT-qPCR was carried out following the Applied Biosciences TaqMan miRNA expression assay protocol on a ViiA7 instrument (Thermo Fisher Scientific, Inc.). […] Therefore, to maximize the number of drugs and concentrations, explored in the same study, we pooled the triplicates for intracellular profiling of miRNAs. Therefore, no statistical analysis was performed on the data of miRNA profiling in the pellets of hiPSC-CM.
Following RTCA CardioECR assessment, hiPSC-CM cell pellets were collected, and total RNA was extracted and purified to investigate miRNAs upregulation by RT-qPCR. […] For the initial assessment of intracellular miRNAs in 12 different treatments, encompassing various drug classes, we used a panel of 17 miRNAs, which we selected from the publicly available data focusing mainly on in vitro models and structural cardiotoxicants (Supplementary Table S2).
On the technique in general: Quantitative PCR measures a nucleic acid by following its amplification.

The mark [3] stands for this setting: 72 h, read-out: hsa-miR-7-5p fold change.
Setting [4] is: 72 h, read-out: hsa-miR-29a-5p fold change.
[5] abbreviates: 72 h, read-out: hsa-miR-126-3p fold change.
Where [6] appears, read: 72 h, read-out: hsa-miR-133b fold change.
Where [7] appears, read: 72 h, read-out: hsa-miR-146b-5p fold change.
Setting [8] is: 72 h, read-out: hsa-miR-182-5p fold change.
Setting [9] is: 72 h, read-out: hsa-miR-185-3p fold change.
The mark [10] stands for this setting: 72 h, read-out: hsa-miR-187-3p fold change.
Where [11] appears, read: 72 h, read-out: hsa-miR-208b-3p fold change.
Where [12] appears, read: 72 h, read-out: hsa-miR-365a-5p fold change.
Setting [13] is: hiPSC-CM, 72-hour treatment, lowest concentration causing at least 20% change from baseline.
Setting [14] is: 72 h, read-out: hsa-miR-96-5p fold change.
Setting [15] is: 72 h, read-out: hsa-miR-[…] change.

Values joined by “and” are separate entries in the source; they are usually repeats but may differ in a detail not shown here. Equal values may be shown once. Read-outs that look alike come from different tables or passages of the source.

Consider `COc1nc(N)nc2c1ncn2[C@@H]1O[C@H](COP(=O)(N[C@@H](C)C(=O)OCC(C)(C)C)Oc2cccc3ccccc23)[C@@H](O)[C@@]1(C)O` (stereo partly drawn) [BMS-986094], for which the “Beating Rate MEC” value in data set [1] (human, 72 h) is recorded as 0.048 µM. In data set [1] (human, 72 h), the “RTCA, MEC (BR)” value is reported as 0.048 µM. Besides, the “Spike Amplitude (SA) MEC” value in data set [1] (human, 72 h) was 0.16 µM. Also, in data set [2], the “intracellular miRNA upregulation in hiPSC-CM, in words” value is “lowest upregulation of miRNAs was detected at the highest concentration tested”. Besides, the “miRNAs hiPSC-CM pellet, MEC overall” value in data set [2] turned out to be 0.1 µM. Moreover, the “miRNAs upregulated at the MEC overall (hiPSC-CM pellet)” value (“miRNAs upregulated at the MEC overall” for short) in data set [2] is “miR-29a-5p, miR-365a-5p”. The fold induction at 0.1 µM in data set [2] (setting [3]) came to 1.7; in data set [2] (setting [4]) it was 6.3; in data set [2] (setting [5]) it was 0.3; in data set [2] (setting [6]), 1.3; in data set [2] (setting [7]) it was 1.8; in data set [2] (setting [8]), 1. Besides, the figures for the fold induction at 0.1 µM in data set [2] (setting [10]), in data set [2] (setting [11]) and in data set [2] (setting [12]) were 0.5, 1.7 and 2.2, respectively. Also, the fold induction at 0.3 µM was 1 in data set [2] (setting [3]); 1 in data set [2] (setting [4]); 2.9 in data set [2] (setting [5]); 3.3 in data set [2] (setting [6]); 4.2 in data set [2] (setting [7]); 8.8 in data set [2] (setting [8]). Further, the fold induction at 0.3 µM in data set [2] (setting [9]) was determined as 0.5; in data set [2] (setting [10]), 2.7; in data set [2] (setting [11]) it was 1.3; in data set [2] (setting [12]) it was 0.7. Also, the fold induction at 1 µM in data set [2] (setting [3]) is 1.3; in data set [2] (setting [4]), 1.2; in data set [2] (setting [5]) it was 2.8; in data set [2] (setting [6]), 2; in data set [2] (setting [7]), 11.3; in data set [2] (setting [8]) it was 7.1. Moreover, the fold induction at 1 µM in data set [2] (setting [9]) amounted to 3.3; in data set [2] (setting [10]), 8.8; in data set [2] (setting [11]) it was 1.1; in data set [2] (setting [12]) it was 1.3. Besides, the fold induction at 3 µM in data set [2] (setting [3]) worked out at 1.3; in data set [2] (setting [4]) it was 0.5; in data set [2] (setting [5]) it was 5.2; in data set [2] (setting [6]) it was 1.3; in data set [2] (setting [7]), 1.4; in data set [2] (setting [8]) it was 5.5. Also, the fold induction at 3 µM in data set [2] (setting [9]) came out at 8.2; in data set [2] (setting [11]), 1; in data set [2] (setting [12]), 0.7.

Take `CCN[C@@H](C)Cc1cccc(C(F)(F)F)c1` [Dexfenfluramine]: the “Spike Amplitude (SA) MEC” value in data set [1] (hiPSC-CM, 72-hour treatment, at least 40% change) stood at 0.01 µM. For the same compound, the “Beating rate (BR) MEC” value in data set [1] (setting [13]) is “ND (ND – not detected, magnitude of change was lower than 20%)”. Also, in data set [1] (setting [13]), the “Cell index (CI) MEC” value is “ND (ND – not detected, magnitude of change was lower than 20%)”. Further, the “RTCA, MEC (BR)” value in data set [1] (hiPSC-CM, change ≥20%, Table 2) was “ND (ND – not detected, magnitude of change was lower than 20% for CI/BR)”. Moreover, the “RTCA, MEC (CI)” value in data set [1] (hiPSC-CM, change ≥20%, Table 2) is “ND (ND – not detected, magnitude of change was lower than 20% for CI/BR)”. In addition, the fold induction at 0.01 µM is 0.8 in data set [2] (setting [3]); 1.8 in data set [2] (setting [4]); 1.8 in data set [2] (setting [14]); 1.3 in data set [2] (setting [5]); 4 in data set [2] (setting [6]); 0.5 in data set [2] (setting [7]). The fold induction at 0.01 µM in data set [2] (setting [8]) was found to be 0.01; in data set [2] (setting [9]), 2.1; in data set [2] (setting [10]), 0.6; in data set [2] (setting [11]), 1.1; in data set [2] (setting [15]), 1.2. For the same compound, the fold induction at 0.03 µM in data set [2] (setting [3]) was 0.8; in data set [2] (setting [4]), 0.8; in data set [2] (setting [14]), 0.8; in data set [2] (setting [5]), 2.3; in data set [2] (setting [6]), 0.7; in data set [2] (setting [7]) it was 0.7. Moreover, the fold induction at 0.03 µM is 0.004 in data set [2] (setting [8]); 1.2 in data set [2] (setting [9]); 0.7 in data set [2] (setting [10]); 1 in data set [2] (setting [11]); 2.6 in data set [2] (setting [12]); 0.9 in data set [2] (setting [15]). Also, the fold induction at 0.1 µM in data set [2] (setting [3]) worked out at 0.7; in data set [2] (setting [5]), 0.6; in data set [2] (setting [6]) it was 0.5; in data set [2] (setting [7]), 0.4; in data set [2] (setting [8]), 0.003; in data set [2] (setting [9]) it was 1. Also, the fold induction at 0.1 µM in data set [2] (setting [10]) stood at 0.7; in data set [2] (setting [11]) it was 0.8; in data set [2] (setting [15]), 0.8. Further, the fold induction at 0.3 µM in data set [2] (setting [3]) worked out at 1; in data set [2] (setting [4]), 0.7; in data set [2] (setting [14]) it was 0.7; in data set [2] (setting [5]) it was 0.5; in data set [2] (setting [6]) it was 0.1; in data set [2] (setting [7]), 0.7. The fold induction at 0.3 µM in data set [2] (setting [8]) turned out to be 0.01; in data set [2] (setting [9]), 0.7; in data set [2] (setting [10]), 0.6; in data set [2] (setting [11]), 0.9; in data set [2] (setting [12]) it was 8.9; in data set [2] (setting [15]) it was 0.8. Besides, the “miRNAs upregulated at the MEC overall” value in data set [2] (fold change ≥2, 72 h) was “miR-133b, miR-185-3p”. Further, the “miRNAs hiPSC-CM pellet, MEC overall” value in data set [2] (lowest concentration tested which produced miRNA upregulation (fold change ≥2), 72 h) is recorded as 0.01 µM.

Regarding `Cc1ccc(NC(=O)c2ccc(CN3CCN(C)CC3)cc2)cc1Nc1nccc(-c2cccnc2)n1` [Imatinib], the “Spike Amplitude (SA) MEC” value in data set [1] (human, 72 h) worked out at 0.3 µM. Further, the “miRNAs hiPSC-CM pellet, MEC overall” value in data set [2] came to 0.3 µM.

`O=C1c2c(O)ccc(O)c2C(=O)c2c(NCCNCCO)ccc(NCCNCCO)c21` [Mitoxantrone]: the “RTCA, MEC (CI)” value in data set [1] (hiPSC-CM, change ≥20%, Table 2) is reported as 0.1 µM (CI, BR). Moreover, in data set [1] (human, 72 h), the “Beating Rate MEC” value is 0.1 µM, the “Beating rate (BR) MEC” value was 0.1 µM, the “Contractility Amplitude MEC” value is 0.1 µM and the “Field Potential Duration MEC” value came to 0.1 µM. Further, in data set [1] (human, 72 h), the “RTCA, MEC (BR)” value is recorded as 0.1 µM (CI, BR) and the “Spike Amplitude (SA) MEC” value was 0.1 µM. In addition, in data set [2], the “miRNAs hiPSC-CM pellet, MEC overall” value is listed as 0.1 µM and the “miRNAs upregulated at the MEC overall” value was “miR-96 -5p, miR-146b-5p, miR-182-5p, miR-187-3p, miR-365a-5p”.

For `CC(=O)O[C@H]1C(=O)[C@@]2(C)[C@H]([C@H](OC(=O)c3ccccc3)[C@]3(O)C[C@H](OC(=O)[C@H](O)[C@@H](NC(=O)c4ccccc4)c4ccccc4)C(C)=C1C3(C)C)[C@]1(OC(C)=O)CO[C@@H]1C[C@@H]2O` [Paclitaxel], the “RTCA, MEC (CI)” value in data set [1] (hiPSC-CM, change ≥20%, Table 2) was determined as 0.3 µM. In addition, in data set [1] (human, 72 h), the “Beating Rate MEC” value came to 3 µM, the “Beating rate (BR) MEC” value was 3 µM, the “Contractility Amplitude MEC” value worked out at 0.3 µM and the “Field Potential Duration MEC” value stood at 3 µM. For the same compound, in data set [1] (human, 72 h), the “RTCA, MEC (BR)” value stood at 3 µM and the “Spike Amplitude (SA) MEC” value was determined as 3 µM. In data set [2], the “miRNAs hiPSC-CM pellet, MEC overall” value is 0.3 µM and the “miRNAs upregulated at the MEC overall” value is recorded as “miR-96-5p, miR-133b”.

Consider Endothelin-1, for which, in data set [1] (hiPSC-CM, 72-hour treatment), the “Contractility Amplitude magnitude of effect at MEC” value is -20%, the “Field Potential Duration magnitude of effect at MEC” value is recorded as “+20%” and the “Spike Amplitude (SA) magnitude of effect at MEC” value is -52%. Moreover, in data set [2], the hsa-miR-133b fold change was 2.7 and 3.5 and 3.1; the hsa-miR-208b-3p fold change was 1.6 and 1.5 and 1.1 and 1.0.
